Activity calls are given as the source filed them.
Experiments:
[1] = target: T1, Mannose-6-phosphate isomerase (Homo sapiens, UniProt P34949); assay: human PMI inhibitors, high substrate, primary screen, biochemical, fluorescence intensity, high mannose 6-phosphate (AID 1220)
T1 sequence (P34949 whole entry): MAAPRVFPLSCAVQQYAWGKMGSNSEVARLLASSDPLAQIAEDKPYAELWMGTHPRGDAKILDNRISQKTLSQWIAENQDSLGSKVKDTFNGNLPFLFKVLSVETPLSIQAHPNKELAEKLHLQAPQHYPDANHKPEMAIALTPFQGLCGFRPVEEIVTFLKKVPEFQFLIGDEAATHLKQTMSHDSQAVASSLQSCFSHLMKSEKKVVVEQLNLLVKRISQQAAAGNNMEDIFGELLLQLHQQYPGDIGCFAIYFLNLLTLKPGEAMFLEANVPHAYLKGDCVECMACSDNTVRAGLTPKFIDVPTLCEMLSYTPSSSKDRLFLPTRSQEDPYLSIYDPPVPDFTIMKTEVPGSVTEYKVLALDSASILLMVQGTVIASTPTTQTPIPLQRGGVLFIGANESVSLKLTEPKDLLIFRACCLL

SUMO-activating enzyme = SUMO-activating enzyme (Homo sapiens, UniProt Q9UBT2); assay: inhibitors of in vitro SUMOylation cascade, primary screen, biochemical, HTRF, uHTS (AID 2006); assay type: protein-complex assay
[2] = target: T2, Voltage-gated N-type calcium channel alpha-1B subunit/Amyloid beta A4 precursor protein-binding family A member 1 (Homo sapiens, UniProt Q00975+Q02410); assay type: protein assay
[3] = target: T2, Voltage-gated N-type calcium channel alpha-1B subunit/Amyloid beta A4 precursor protein-binding family A member 1; assay type: protein assay; remark: listed apart in the source
Aminopeptidase N = Aminopeptidase N (Plasmodium falciparum FcB1/Columbia, UniProt O96935); assay: P. falciparum M1AAP inhibitors, biochemical, fluorogenic H-Leu-NHMec substrate, 1536-well (AID 1445); design: species or system Plasmodium falciparum 3D7, 3D7
[4] = target: T3, Polyadenylate-binding protein 1 (Homo sapiens, UniProt P11940); assay: PABP1 MLLE–PAM2 interaction inhibitors, dose response, miRNA deadenylation inhibitor project, biochemical, fluorescence polarization, Cy5-PAM2 peptide, secondary (AID 602260); assay type: functional; details: read-out: IC50_Mean
[5] = target: T3, Polyadenylate-binding protein 1; assay: PABP1 MLLE–PAM2 binding inhibitor potency, dose response, biochemical, fluorescence polarization, FITC-PAM2 peptide (AID 602259); assay type: functional; details: read-out: IC50_Mean
[6] = test system: Streptococcus sp. 'group A'; assay: growth inhibition of control SK(-) GAS strain, dose response, counter-screen for streptokinase expression inhibitor project, luminescence, kanamycin, BacTiterGlo, confirmation (AID 1900); assay type: functional, organism-based
[7] = target: T4, Corticotropin-releasing factor receptor 2/Corticotropin-releasing factor-binding protein (Homo sapiens, UniProt P24387+Q13324); assay: activators of CRF receptor 2 with binding protein – uHTS hits, confirmation (AID 602473); assay type: functional; details: read-out: EC50_Mean
T4 sequence (Q13324 whole entry): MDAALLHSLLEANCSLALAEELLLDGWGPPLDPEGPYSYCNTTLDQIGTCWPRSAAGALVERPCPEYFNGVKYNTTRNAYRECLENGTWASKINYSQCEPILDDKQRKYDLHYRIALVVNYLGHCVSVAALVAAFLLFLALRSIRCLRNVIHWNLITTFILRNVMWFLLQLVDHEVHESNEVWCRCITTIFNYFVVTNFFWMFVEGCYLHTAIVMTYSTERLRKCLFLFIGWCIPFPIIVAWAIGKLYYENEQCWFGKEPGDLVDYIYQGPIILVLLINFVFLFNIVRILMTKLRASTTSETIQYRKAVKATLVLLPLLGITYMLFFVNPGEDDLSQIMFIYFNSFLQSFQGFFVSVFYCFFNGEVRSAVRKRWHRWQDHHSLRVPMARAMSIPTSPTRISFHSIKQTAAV
T4 sequence (P24387 whole entry): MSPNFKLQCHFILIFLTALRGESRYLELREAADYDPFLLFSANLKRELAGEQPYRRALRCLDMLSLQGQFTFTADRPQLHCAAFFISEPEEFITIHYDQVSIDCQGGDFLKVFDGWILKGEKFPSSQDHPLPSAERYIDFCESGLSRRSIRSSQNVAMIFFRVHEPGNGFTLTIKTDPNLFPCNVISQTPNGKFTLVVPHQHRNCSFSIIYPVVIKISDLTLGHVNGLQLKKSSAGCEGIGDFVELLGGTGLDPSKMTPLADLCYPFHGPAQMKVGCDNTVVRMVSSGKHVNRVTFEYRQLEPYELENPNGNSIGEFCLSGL

Streptokinase A = target: T5, Streptokinase A (Streptococcus pyogenes serotype M1, UniProt P10520); assay: S. pyogenes streptokinase expression inhibitors, potency, dose response, plasminogen activation absorbance, OD405 (AID 1914); assay type: functional, Streptococcus pyogenes M1 GAS;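 further: secreted streptokinase activity via plasminogen activation per viability signal from cell pellet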
T5 sequence (P10520 whole entry): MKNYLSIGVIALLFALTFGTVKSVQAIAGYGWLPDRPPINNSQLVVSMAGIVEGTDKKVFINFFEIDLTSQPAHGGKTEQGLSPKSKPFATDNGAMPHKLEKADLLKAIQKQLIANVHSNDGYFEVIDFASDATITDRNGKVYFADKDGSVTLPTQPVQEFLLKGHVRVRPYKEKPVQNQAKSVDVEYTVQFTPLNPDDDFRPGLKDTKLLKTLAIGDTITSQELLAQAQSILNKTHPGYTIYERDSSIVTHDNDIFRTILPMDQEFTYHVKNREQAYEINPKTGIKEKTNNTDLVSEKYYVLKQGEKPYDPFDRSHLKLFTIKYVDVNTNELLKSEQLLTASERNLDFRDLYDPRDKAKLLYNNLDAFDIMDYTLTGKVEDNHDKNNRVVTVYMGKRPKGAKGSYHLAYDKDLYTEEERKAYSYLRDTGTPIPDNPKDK

Streptococcus = assay: Group A Streptococcus viability loss, dose response, counter-screen for streptokinase expression inhibitor project, luminescence, BacTiterGlo (AID 1915); assay type: functional, organism-based;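 further: potency for reduction of bacterial viability or growth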
[8] = target: T4, Corticotropin-releasing factor receptor 2/Corticotropin-releasing factor-binding protein; assay: Dose Response confirmation of uHTS hits for small molecule antagonists of the CRF-binding protein and CRF-R2 receptor complex.; assay type: functional; details: read-out: IC50_Mean
[9] = cytotoxicity in HEK-293T cells, dose response, cytotoxicity control for TCR NF-kB inhibitor project, luminescence, T-cell screen hits (AID 489026); assay type: functional, cell-based;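 further: cells exposed to compound about 14 hours before the viability readout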
[10] = target: COUP transcription factor 2 (Homo sapiens, UniProt P24468); assay: Luminescence-based cell-based high throughput dose response assay to identify inhibitors of COUP-TFII (NR2F2).; assay type: functional;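 further: HEK293 cells transiently cotransfected with COUP-TFII expression vector and reporter; luciferase reporter luminescence driven by COUP-TFII from the pX2-168 reporter plasmid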
Trypsin = Trypsin (Sus scrofa, UniProt P00761); assay: porcine trypsin inhibitors, dose response, selectivity assay for Rce1 protease inhibitor project, biochemical, quenched peptide fluorescence, cherry-pick (AID 488789)
CAAX prenyl protease 2 = target: T6, CAAX prenyl protease 2 (Saccharomyces cerevisiae S288c, UniProt Q03530); assay type: biochemical
T6 sequence (Q03530 whole entry): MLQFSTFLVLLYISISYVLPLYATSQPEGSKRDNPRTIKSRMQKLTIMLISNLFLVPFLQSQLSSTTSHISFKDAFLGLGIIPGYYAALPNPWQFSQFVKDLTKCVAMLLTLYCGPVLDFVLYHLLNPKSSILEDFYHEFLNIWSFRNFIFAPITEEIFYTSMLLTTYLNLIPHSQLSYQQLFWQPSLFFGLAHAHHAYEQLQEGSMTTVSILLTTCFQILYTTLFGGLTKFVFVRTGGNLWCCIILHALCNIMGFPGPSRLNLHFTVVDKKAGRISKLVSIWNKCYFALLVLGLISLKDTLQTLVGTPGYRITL

Beta Lactamase = Beta Lactamase (Pseudomonas aeruginosa, UniProt Q932Y6); assay: beta-lactamase reporter inhibitor potency, dose response, artefact control for NOD2-RIPK2 interaction inhibitor project, BLA reporter cells, FRET fluorescence (AID 651552); assay type: functional, cell-based
Hexokinase HKDC1 = target: T7, Hexokinase HKDC1 (Homo sapiens, UniProt Q2TB90); assay: HKDC1 hexokinase inhibitors, dose response, biochemical, W721R variant (AID 504729); assay type: functional
T7 sequence (Q2TB90 whole entry): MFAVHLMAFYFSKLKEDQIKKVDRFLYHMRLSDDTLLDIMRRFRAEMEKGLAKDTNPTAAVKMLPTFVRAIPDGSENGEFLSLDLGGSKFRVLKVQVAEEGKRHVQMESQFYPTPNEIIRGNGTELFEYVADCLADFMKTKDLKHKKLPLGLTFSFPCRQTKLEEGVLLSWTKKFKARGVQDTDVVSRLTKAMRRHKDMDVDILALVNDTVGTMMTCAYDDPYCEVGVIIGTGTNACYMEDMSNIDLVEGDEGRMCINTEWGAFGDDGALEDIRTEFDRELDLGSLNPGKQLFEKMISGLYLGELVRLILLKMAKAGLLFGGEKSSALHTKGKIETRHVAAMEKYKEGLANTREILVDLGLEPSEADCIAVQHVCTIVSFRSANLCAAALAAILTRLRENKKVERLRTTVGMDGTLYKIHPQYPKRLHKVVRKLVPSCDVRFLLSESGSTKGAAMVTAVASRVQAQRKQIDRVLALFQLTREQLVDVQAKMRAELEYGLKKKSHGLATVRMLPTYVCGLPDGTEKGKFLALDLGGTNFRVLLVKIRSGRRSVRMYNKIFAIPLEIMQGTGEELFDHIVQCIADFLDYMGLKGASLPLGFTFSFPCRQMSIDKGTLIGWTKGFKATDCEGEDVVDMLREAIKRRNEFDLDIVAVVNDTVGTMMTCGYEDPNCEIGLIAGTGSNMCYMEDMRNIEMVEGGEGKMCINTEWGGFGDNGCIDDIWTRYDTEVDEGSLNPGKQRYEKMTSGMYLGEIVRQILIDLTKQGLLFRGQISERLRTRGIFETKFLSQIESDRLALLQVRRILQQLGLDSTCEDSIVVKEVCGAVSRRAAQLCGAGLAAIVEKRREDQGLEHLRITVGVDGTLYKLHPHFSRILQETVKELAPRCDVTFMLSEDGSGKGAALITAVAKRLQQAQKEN

[11] = growth suppression of PTEN-null colon cells, dose response, cell-based, HCT116 PTEN knockout (AID 1047); assay type: functional;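 further: HCT116 colon tumor cells with PTEN knocked out; cells exposed to compound for 60 hours before readout; potency for loss of cell viability measured by luminescence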
[12] = growth suppression of beta-catenin-knockout colon cells, dose response, cell-based, HCT116, human colon tumor (AID 1045); assay type: functional;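 further: HCT116 colon tumor cells with beta catenin knocked out; cells exposed to compound for 60 hours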
[13] = Fluorescence-based cell-based high throughput dose response assay for inhibitors of the interaction of nucleotide-binding oligomerization domain containing 2 (NOD2) and the receptor-interacting serine-threonine kinase 2 (RIPK2).; assay type: functional; details: Homo sapiens
Coagulation factor XII = Coagulation factor XII (Homo sapiens, UniProt P00748); assay type: functional;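 further: activated factor XIIa alpha cleaving a fluorogenic AMC peptide substrate; inhibitor potency from loss of enzyme activity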
[14] = target: Voltage-dependent T-type calcium channel subunit alpha-1H (Homo sapiens, UniProt O95180); assay: Cav3.2 T-type channel inhibitors, cell-based, synthetic library set 1, calcium flux (AID 493022); assay type: functional
Hexokinase = Hexokinase (Trypanosoma brucei, UniProt Q38C41); assay: Confirmation assay for inhibitors of Trypanosoma brucei hexokinase 1-Analogue-first series. [Related pubchem assays (depositor defined):AID1430, AID1632, AID2516, AID2560, AID2579, AID2600, AID449725, AID492951]; assay type: functional
[15] = target: Alkaline phosphatase, placental type (Homo sapiens, UniProt P05187); assay: PLAP enzyme inhibitors, confirmation, biochemical, luminescence (AID 1512); assay type: functional
[16] = target: T8, Alkaline phosphatase, tissue-nonspecific isozyme (Homo sapiens, UniProt P05186); assay: human TNAP enzyme inhibitors, SAR follow-up, biochemical, luminescent, dose response (AID 1056)
T8 sequence (P05186 whole entry): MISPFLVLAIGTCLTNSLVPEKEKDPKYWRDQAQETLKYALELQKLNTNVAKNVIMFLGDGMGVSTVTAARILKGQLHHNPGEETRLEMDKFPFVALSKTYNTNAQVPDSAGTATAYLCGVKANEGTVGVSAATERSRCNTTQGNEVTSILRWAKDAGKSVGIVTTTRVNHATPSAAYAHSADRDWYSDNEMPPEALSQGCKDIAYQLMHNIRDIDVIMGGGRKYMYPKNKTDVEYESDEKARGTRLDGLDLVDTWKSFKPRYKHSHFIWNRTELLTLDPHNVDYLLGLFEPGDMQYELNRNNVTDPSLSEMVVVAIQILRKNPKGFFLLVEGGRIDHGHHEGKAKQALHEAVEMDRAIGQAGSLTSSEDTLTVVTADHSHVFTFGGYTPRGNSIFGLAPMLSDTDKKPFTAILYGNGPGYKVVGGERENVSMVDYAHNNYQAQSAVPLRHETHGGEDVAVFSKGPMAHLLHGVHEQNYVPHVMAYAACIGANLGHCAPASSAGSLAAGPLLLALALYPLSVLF

Chain of Voltage-dependent T-type calcium channel subunit alpha-1H (O95180 whole entry): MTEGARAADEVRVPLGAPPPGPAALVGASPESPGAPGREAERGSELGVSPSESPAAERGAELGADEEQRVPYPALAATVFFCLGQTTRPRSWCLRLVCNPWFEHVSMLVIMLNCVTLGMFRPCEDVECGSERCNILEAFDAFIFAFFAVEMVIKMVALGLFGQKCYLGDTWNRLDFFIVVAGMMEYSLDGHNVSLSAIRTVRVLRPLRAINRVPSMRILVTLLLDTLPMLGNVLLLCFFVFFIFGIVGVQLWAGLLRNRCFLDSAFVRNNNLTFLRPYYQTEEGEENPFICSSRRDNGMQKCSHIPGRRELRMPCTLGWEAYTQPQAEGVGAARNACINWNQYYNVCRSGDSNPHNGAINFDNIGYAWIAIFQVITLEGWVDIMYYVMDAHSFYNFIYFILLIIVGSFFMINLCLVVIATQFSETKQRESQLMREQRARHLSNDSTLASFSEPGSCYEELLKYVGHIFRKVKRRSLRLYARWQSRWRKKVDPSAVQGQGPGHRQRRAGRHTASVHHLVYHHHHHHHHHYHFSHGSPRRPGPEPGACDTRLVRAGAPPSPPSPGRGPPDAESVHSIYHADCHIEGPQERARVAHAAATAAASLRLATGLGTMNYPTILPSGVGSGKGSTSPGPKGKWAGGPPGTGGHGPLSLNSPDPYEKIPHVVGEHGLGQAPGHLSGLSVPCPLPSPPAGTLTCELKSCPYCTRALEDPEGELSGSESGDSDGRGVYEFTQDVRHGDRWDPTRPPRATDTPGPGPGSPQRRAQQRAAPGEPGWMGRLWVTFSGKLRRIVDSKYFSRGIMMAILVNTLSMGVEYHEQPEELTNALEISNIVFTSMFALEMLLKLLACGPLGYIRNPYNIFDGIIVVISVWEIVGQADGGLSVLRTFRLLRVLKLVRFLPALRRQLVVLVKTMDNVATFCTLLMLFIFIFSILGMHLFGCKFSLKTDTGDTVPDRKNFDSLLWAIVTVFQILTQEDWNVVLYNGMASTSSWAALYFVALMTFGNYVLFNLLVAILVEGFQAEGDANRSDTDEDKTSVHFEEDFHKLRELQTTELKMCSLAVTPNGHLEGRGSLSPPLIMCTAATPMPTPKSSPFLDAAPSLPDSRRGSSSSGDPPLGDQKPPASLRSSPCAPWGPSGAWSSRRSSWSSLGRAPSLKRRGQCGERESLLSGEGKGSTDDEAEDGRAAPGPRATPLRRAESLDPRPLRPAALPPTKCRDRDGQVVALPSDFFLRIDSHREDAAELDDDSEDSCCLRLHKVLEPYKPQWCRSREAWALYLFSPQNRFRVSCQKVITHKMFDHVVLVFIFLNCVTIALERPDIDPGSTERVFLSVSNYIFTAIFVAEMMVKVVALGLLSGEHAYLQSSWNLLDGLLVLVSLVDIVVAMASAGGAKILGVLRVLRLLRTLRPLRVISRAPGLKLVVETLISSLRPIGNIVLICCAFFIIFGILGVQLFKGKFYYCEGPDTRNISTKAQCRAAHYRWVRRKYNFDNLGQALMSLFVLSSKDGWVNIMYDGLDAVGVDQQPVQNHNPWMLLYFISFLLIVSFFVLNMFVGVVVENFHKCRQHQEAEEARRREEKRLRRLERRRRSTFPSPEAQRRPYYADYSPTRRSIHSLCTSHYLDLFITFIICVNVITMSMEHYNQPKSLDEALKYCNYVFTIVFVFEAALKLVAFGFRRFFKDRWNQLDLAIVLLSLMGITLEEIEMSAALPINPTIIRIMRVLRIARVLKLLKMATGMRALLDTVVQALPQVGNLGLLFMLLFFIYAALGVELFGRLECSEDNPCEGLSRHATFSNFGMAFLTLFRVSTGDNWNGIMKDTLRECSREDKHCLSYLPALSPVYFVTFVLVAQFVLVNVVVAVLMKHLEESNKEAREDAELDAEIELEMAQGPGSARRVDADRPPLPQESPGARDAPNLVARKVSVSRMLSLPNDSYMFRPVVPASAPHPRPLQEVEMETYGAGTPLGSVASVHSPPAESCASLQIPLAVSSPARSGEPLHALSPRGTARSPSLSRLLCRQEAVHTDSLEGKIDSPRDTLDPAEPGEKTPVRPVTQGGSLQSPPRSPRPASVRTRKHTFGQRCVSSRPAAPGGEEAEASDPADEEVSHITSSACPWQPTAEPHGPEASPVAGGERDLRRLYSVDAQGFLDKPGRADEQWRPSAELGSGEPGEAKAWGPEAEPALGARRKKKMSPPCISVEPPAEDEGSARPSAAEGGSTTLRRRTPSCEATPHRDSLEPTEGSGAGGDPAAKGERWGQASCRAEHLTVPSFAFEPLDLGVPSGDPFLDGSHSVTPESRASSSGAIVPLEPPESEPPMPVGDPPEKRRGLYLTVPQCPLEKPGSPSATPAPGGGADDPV
Chain of Coagulation factor XII (P00748 20-372 limits assumed): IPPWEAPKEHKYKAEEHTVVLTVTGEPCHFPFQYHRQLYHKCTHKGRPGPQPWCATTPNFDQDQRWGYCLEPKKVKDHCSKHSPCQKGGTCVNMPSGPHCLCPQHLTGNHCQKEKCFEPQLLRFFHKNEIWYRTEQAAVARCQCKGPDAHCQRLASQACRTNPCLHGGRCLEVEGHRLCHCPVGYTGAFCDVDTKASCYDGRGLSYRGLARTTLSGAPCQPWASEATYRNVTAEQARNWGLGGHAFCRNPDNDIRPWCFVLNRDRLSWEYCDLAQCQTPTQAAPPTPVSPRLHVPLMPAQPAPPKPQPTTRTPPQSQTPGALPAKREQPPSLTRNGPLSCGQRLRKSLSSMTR
Chain of Coagulation factor XII (P00748 373-615 limits assumed): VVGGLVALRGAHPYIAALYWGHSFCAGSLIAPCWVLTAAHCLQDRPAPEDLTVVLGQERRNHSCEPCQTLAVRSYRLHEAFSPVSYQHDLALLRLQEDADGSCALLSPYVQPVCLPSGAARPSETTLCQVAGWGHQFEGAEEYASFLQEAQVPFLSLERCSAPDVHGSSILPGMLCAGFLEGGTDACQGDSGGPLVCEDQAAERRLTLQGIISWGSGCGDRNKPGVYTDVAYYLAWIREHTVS
T3 sequence (P11940 whole entry): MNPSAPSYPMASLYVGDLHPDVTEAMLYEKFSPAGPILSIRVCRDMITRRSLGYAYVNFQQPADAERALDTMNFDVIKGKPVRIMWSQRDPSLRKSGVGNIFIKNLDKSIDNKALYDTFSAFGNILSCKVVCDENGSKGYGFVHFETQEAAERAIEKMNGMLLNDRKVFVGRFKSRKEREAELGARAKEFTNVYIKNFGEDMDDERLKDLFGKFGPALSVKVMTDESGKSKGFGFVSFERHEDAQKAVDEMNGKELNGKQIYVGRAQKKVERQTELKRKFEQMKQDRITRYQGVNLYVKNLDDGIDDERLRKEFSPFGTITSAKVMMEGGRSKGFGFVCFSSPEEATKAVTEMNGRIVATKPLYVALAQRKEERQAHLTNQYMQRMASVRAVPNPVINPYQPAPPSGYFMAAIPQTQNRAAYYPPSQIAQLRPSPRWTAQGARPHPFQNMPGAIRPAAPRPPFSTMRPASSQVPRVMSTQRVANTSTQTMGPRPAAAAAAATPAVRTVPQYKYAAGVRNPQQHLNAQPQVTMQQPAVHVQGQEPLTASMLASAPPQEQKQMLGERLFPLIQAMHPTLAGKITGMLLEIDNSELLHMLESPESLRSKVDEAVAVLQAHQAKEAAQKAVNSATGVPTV
Chain of Alkaline phosphatase, placental type (P05187 whole entry): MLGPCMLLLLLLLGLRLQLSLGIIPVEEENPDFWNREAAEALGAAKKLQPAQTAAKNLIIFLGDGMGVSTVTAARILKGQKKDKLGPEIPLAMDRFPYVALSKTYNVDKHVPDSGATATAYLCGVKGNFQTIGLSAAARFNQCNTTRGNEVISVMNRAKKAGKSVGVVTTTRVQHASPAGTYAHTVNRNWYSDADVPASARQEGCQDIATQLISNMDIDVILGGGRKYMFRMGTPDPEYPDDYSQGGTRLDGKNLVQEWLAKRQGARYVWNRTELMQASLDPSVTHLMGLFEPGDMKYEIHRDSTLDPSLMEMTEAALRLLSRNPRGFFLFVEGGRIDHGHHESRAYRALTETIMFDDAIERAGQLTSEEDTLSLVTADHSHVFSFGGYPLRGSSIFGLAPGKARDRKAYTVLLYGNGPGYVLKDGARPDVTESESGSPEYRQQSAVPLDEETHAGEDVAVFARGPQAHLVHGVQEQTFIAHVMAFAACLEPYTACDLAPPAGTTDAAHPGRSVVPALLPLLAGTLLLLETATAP
Chain of Beta Lactamase (Q932Y6 whole entry): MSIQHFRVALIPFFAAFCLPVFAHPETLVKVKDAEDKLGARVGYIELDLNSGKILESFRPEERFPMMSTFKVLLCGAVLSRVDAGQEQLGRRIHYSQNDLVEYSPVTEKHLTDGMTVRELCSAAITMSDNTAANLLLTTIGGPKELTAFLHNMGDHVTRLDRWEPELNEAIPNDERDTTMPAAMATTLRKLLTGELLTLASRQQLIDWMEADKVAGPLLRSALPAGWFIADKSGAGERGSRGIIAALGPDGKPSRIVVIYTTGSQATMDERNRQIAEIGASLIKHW
Chain of Trypsin (P00761 whole entry): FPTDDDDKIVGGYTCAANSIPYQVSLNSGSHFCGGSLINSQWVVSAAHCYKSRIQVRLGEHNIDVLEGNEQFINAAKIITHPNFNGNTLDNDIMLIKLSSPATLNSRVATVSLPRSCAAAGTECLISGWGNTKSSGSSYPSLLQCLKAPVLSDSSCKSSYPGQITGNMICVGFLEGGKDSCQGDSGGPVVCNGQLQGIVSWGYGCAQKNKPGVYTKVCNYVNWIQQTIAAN
Chain of COUP transcription factor 2 (P24468 whole entry): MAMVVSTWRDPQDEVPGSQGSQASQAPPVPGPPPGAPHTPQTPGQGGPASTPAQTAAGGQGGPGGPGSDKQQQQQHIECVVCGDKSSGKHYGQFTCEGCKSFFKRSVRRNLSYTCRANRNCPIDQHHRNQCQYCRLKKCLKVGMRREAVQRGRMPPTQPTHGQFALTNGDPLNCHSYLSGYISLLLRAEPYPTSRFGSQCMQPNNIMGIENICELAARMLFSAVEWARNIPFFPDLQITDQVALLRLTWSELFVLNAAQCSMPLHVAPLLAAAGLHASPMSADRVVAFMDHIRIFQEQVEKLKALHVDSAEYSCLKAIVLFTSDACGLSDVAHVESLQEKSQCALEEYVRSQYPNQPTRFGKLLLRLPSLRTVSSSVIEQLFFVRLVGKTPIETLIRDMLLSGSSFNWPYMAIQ

CCN(CC)C(=O)C1CCCN(C(=O)Nc2ccc3nsnc3c2)C1 (stereo not given)
IC50 [1]: > 50 µM (not active)
IC50 (SUMO-activating enzyme): 12 µM (active)

COc1ccc(-c2cc3c(=O)n(CC(=O)Nc4ccc(C(C)=O)cc4)ncn3n2)cc1
IC50 [2]: 7.89 µM (active)
IC50 [3]: > 50 µM (inactive)

CCNc1cc2oc(=O)c(CN3CCOCC3)c(C)c2cc1C
IC50 (Aminopeptidase N): 32.2 µM (active)
IC50 [4]: > 66 µM (inactive)
IC50 [5]: > 66 µM (inactive)

COc1ccc(-c2ccc3oc(-c4ccc(OC)cc4)c(C#CCO)c3c2)cc1
EC50 [6]: > 150 µM (not active)
EC50 [7]: > 53 µM (inactive)
EC50 (Streptokinase A): > 150 µM (not active)
EC50 (Streptococcus): > 150 µM (not active)
IC50 [8]: > 47.1 µM (inactive)
IC50 [9]: > 80 µM (inactive)
IC50 [10]: 3.38 µM (active)

CCn1cc(/C=C(\NC(=O)c2ccccc2)C(=O)N2CCOCC2)c2ccccc21
AC50 (Trypsin): 23.6 µM (active)
AC50 (CAAX prenyl protease 2): 5.85 µM (active)

CC(C)(C=O)C1=CC(=O)c2ccccc2C1=O
IC50 (Beta Lactamase): 11.5 µM (inactive)
IC50 (Hexokinase HKDC1): 27.9 µM (inactive)
EC50 [11]: 4.68 µM (active)
EC50 [12]: 4.58 µM (active)
IC50 [13]: 1.23 µM (active)

c1ccc(-n2cccc2)c(N2CCCCC2)c1
IC50 (Coagulation factor XII): > 50 µM (inactive)

O=C(COc1ccccc1Cl)Nc1nnc(-c2ccc3c(c2)OCCO3)o1
EC50 [14]: 3.1 µM (active)

O=C(COc1ccccc1F)Nc1nnc(-c2ccc3c(c2)CCCC3)o1
EC50 [14]: 1.7 µM (active)

COc1ccc(C(=O)Nc2cccc(Cl)c2)cc1
IC50 (Hexokinase): > 25 µM (inactive)

CCCCN1C(=O)/C(=N\Nc2ccccc2Cl)c2ccccc21
IC50 [15]: 91.6 µM (active)
IC50 [16]: > 100 µM (inactive)

C/C(Cc1ccccc1)=N\NC(=O)CNC(=O)c1ccc(Cl)cc1Cl
IC50 (Coagulation factor XII): > 50 µM (inactive)

O=C(CSc1nc2ccccc2[nH]1)c1ccc(O)c(O)c1
IC50 [15]: 4.79 µM (active)
IC50 [16]: 5.44 µM (active)

Source: ChEMBL document CHEMBL1201862, “PubChem BioAssay data set” (2004)
